Test results taken from patent US5719132A, “Compositions and methods of treating HIV with d4T, 5-fluorouracil/tegafur, and uracil” (priority 1996, dated 1998).
Like-named read-outs stand apart in the source and are kept apart here.

Legend:
[1] = test system: thymidylate synthetase (TS); settings: cited from earlier work
[2] = in vivo; cited from earlier work
[3] = test system: PHA-PBMC; assay: cytotoxicity in PBMC by trypan blue exclusion
Procedure: (§1) Cells--Peripheral blood mononuclear cells (PBMC) from normal individuals were prepared by Ficoll-Hypaque gradient centrifugation of venous blood with citrate as an anticoagulant and stimulated with phytoagglutinin (PHA--P, 4 μg/ml, Sigma Chemical, St. Louis, Mo.) and interleukin-2 (IL-2, 1 ng/ml, Upstate Biotechnology Inc., Lake Placid, N.Y.) for three days.
(§2) To determine the cytotoxicity of 5-FU, uninfected PBMC were incubated with a series of concentrations of 5-FU (i.e., 0.04, 0.16, 0.63, 2.5 and 10 μM). To determine whether 5-FU can affect the cytotoxicity of d4T, uninfected PBMC were incubated with a series of concentrations of d4T (i.e., 0.8, 3.1, 12.5, 50 and 200 μM) containing 0.02 μM of 5-FU. This was repeated with d4T using 5-FU concentrations of 0.1 μM and 0.5 μM, respectively. Cell viability was monitored by trypan blue exclusion assay. Results were expressed as a percentage of living cells in drug testing wells compared to those in untreated control wells. The 50% cytotoxic concentration (CC50) was calculated as the concentration of drugs that decreased the percentage of living cells in drug-treated wells to 50% of those in untreated wells.

[4] = in vitro; settings: human, pha-stimulated pbmc
Procedure: as §1, §2

[5] = test system: clinical HIV-1 isolate JEW; assay: anti-HIV activity (p24 production) in PHA-stimulated PBMC, clinical isolate JEW; type: cell-based; settings: for EC50: Human immunodeficiency virus 1, PBMC, mean of three experiments; for Fold Enhancement (d4T anti-HIV activity): Table 1; for Fold Enhancement (ddI anti-HIV activity): Table 2
Text: .cndot."a" refers to the EC50 data as representing the mean values from three experiments, with duplicate determinations in each experiment.
Virus--A clinical HIV-1 isolate, JEW, was titrated with a infectivity assay [Johnson, V. A. and R. E. Byington. 1990. Infectivity assay, p. 71-76. in A. Aldovini and B. D. Walker (ed.), Techniques in HIV Research. Stockton Press, New York], and used in our experiments.
Chemicals--d4T was supplied by Bristol-Myers Squibb Company. 5-Fluorouracil(5-FU) was purchased from Sigma.
1. PBMC were infected by the clinical isolate JEW at a multiplicity of infection (MOI) of 0.001 at 37° C. for one hour, and then resuspended in RPMI 1640 medium (Gibco, Gaithersburg, Md.) containing 20% fetal bovine serum (FBS, Sigma), 1 ng/ml IL-2 and 2 mM L-glutamine (Gibco) at a concentration of 4×10^6 cells/ml.
2. d4T (2 μM) or ddI (40 μM) was serially diluted 1:3 into RPMI 1640 medium with a final volume of 100 μl/well in 96-well plates, and 50 μl of 2.0 μM, 0.8 μM and 0 μM 5-FU were then added to each well.
3. 50 μl of 4×10^6 / ml infected PBMC were added to each well in these plates to get a final 1×10^6 cells/ml, and incubated at 37° C.
4. Half media (100 μl) from each well were removed and replaced with fresh medium containing same concentrations of drug at day 3 or 4.
5. Samples were collected at day 7 and the p24 levels were quantitated using a HIV p24 ELISA kit (Dupont, Boston, Mass.).

[6] = test system: human immunodeficiency virus (HIV); settings: cited from earlier work
[7] = cited from earlier work
[8] = clinical studies; cited from earlier work
[9] = test system: HIV-1 reverse transcriptase; settings: in vitro; cited from earlier work
[10] = test system: HIV; settings: cited from earlier work
[11] = test system: clinical HIV isolate OLR; assay: anti-HIV activity in PBMC, clinical isolate OLR; type: cell-based; settings: with 0.1 μM 5-FU
Procedure: The 50% cytotoxicity concentration of 5-FU in PHA--PBMC is approximately 9 μM (i.e. micromolar) as determined by trypan blue staining.

[12] = test system: HIV; settings: 20 patients treated for up to 24 months; cited from earlier work
[13] = test system: HIV; settings: lowering of endogenous dATP; cited from earlier work
[14] = test system: degradation of 5-fluorouracil; settings: in vitro; cited from earlier work

In the case of `O=c1[nH]cc(F)c(=O)[nH]1` [5-FU, 5-fluorouracil], the TS inhibition [1] is listed as “effective TS inhibitor”, the half-life [2] is listed as “very short half-life” and the “toxicity to PBMC” value ([3]; up to 0.5 μM) is listed as “non-toxic”. For the same compound, the “potentiating effect on d4T cytotoxicity” value ([3]; up to 0.5 μM 5-FU, PBMC) was “no potentiating effect”, the CC50 [4] was ~9000 nM and the “potentiating effect on the anti-HIV activity of ddI” value ([5]; up to 0.5 μM 5-FU, PBMC) was “no potentiating effect”. The antiviral activity alone ([5]; up to 0.5 μM, PHA-PBMC acutely infected by isolate JEW) was “no antiviral activity”.
In the case of `Nc1ccn([C@H]2C=C[C@@H](CO)O2)c(=O)n1` [d4C, 2',3'-dideoxycytidin-2'-ene], the “antiviral activity against HIV” value [6] is listed as “demonstrated antiviral activity”.
In the case of `Cc1cn([C@H]2C=C[C@@H](CO)O2)c(=O)[nH]c1=O` [d4T, 2',3'-didehydro-3'-deoxythymidine], the dose-limiting toxicity ([7]; clinical studies) is given as “peripheral neuropathy”, the undesirable side effects ([7]; human, in vivo) is given as “peripheral neuropathy” and the oral bioavailability [8] is given as “greater than 80%”. For the same compound, the “inhibition of HIV-1 reverse transcriptase” value [9] was “potent inhibitor”, the “antiviral activity against HIV” value [6] was “demonstrated antiviral activity” and the “time until CD4 counts and serum p24 levels return to baseline” value ([10]; duration of anti-viral responses in patients) was “approximately 6 months”. The CD4 counts ([10]; treated patients) was “increases in CD4 counts”, the “serum p24 levels and infectious HIV titers in PBMC” value ([10]; treated patients) was “decreases in both serum p24 levels and infectious HIV titers” and the “fold enhancement of d4T activity” value [11] was 4.5 fold. For the same compound, the EC50 ([5]; read-out: EC50 of d4T, PHA-stimulated PBMC, isolate JEW, 5-FU 0 μM) was 98 ± 42 nM, the EC50 ([5]; read-out: EC50 of d4T, PHA-stimulated PBMC, isolate JEW, with 5-FU 0.2 μM) was 92 ± 39 nM and the EC50 ([5]; read-out: EC50 of d4T, PHA-stimulated PBMC, isolate JEW, with 5-FU 0.5 μM) was 27 ± 15 nM. The “fold enhancement of the anti-HIV activity of d4T” value ([5]; with 0.5 μM 5-FU, isolate JEW) was ≤ 4 fold, the “Fold Enhancement (d4T anti-HIV activity)” value ([5]; with 5-FU 0.2 μM) was 1 X and the “Fold Enhancement (d4T anti-HIV activity)” value ([5]; with 5-FU 0.5 μM) was 4 X. The resistant viruses isolated [12] was “no resistant viruses can be isolated”.
In the case of `Nc1ncnc2c1ncn2[C@H]1CC[C@@H](CO)O1` [ddA, 2',3'-dideoxyadenosine], the “antiviral activity against HIV” value [6] is given as “demonstrated antiviral activity”.
In the case of `Nc1ccn([C@H]2CC[C@@H](CO)O2)c(=O)n1` [ddC, 2',3'-dideoxycytidine], the “antiviral activity against HIV” value [6] is given as “demonstrated antiviral activity”.
For `OC[C@@H]1CC[C@H](n2cnc3c(O)ncnc32)O1` [ddI, 2',3'-dideoxyinosine], the “antiviral activity against HIV” value [6] is listed as “demonstrated antiviral activity”, the EC50 ([5]; PHA-stimulated PBMC, isolate JEW, 5-FU 0 μM, read-out: EC50 of ddI) is listed as 100 ± 32 nM and the EC50 ([5]; PHA-stimulated PBMC, isolate JEW, with 5-FU 0.2 μM, read-out: EC50 of ddI) is listed as 170 ± 2 nM. The “Fold Enhancement (ddI anti-HIV activity)” value ([5]; with 5-FU 0.2 μM) was 0.6 X and the “Fold Enhancement (ddI anti-HIV activity)” value ([5]; with 5-FU 0.5 μM) was 0.7 X.
For `NC(=O)NO` [hydroxyurea], the “effect of hydroxyurea on anti-HIV activity of ddI” value [13] is listed as “enhanced anti-HIV activity of ddI”.
For `O=c1cc[nH]c(=O)[nH]1` [uracil], the “inhibition of degradation of 5-fluorouracil” value [14] is listed as “strongly inhibits the degradation of 5-fluorouracil”.
